IC50 data for 12 compounds are collected here from patent publication US20260070945A1, “MACROCYCLIC IMMUNOMODULATORS” (Bristol-Myers Squibb Company, priority 2022, published 2026).

Molecules are shown by their SMILES. *1 amine or outer side, *2 acyl side, *3 side chain or, on linkers, in order; H or OH if unused. Where a SMILES comes first, the peptide text is derived from it. Bridges are numbered along the chain shown (N, C = ends). [ ]: non-standard residue; d: D form. The star is where a group is joined. X5 = O=C([C@H](Cc1ccc(-c2cc(F)c(F)c(F)c2)cc1)N[*:1])[*:2]; Phe(4-(4-F-Ph)) = N[C@@H](Cc1ccc(-c2ccc(F)cc2)cc1)C(=O)O; X13 = O=C([C@H](Cc1ccc(-c2cc(F)cc(F)c2)cc1)N[*:1])[*:2]; Phe(3-CF3) = N[C@@H](Cc1cccc(C(F)(F)F)c1)C(=O)O; Phe(4-COOH) = N[C@@H](Cc1ccc(C(=O)O)cc1)C(=O)O; Bip = N[C@@H](Cc1ccc(-c2ccccc2)cc1)C(=O)O; Phe(3-CN) = N#Cc1cccc(C[C@H](N)C(=O)O)c1; Phe(3-Cl) = N[C@@H](Cc1cccc(Cl)c1)C(=O)O; Phe(3-Me) = Cc1cccc(C[C@H](N)C(=O)O)c1; Cha = N[C@@H](CC1CCCCC1)C(=O)O; Cit = NC(=O)NCCC[C@H](N)C(=O)O; Carboxymethyl = O=C(O)C*; NMeA = CN[C@@H](C)C(=O)O; Aun = NCCCCCCCCCCC(=O)O; Dab = NCC[C@H](N)C(=O)O; AEEA = NCCOCCOCC(=O)O

The target in this test is T1, PD-1/PD-L1 interaction (PE-labeled human PD-L1-Ig binding to Jurkat cell line over-expressing human PD-1) (Homo sapiens, UniProt Q15116).
T1 construct: expressed in transfected cells; host or cells: Jurkat
T1 sequence (Q15116 25-288): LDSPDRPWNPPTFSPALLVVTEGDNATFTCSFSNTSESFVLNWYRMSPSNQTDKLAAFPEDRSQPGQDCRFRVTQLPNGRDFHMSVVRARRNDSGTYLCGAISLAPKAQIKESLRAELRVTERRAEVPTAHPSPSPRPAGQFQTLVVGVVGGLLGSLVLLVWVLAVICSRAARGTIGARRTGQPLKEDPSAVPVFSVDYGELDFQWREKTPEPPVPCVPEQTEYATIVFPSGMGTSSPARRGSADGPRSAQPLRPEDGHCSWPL
Kind of test: Jurkat-PD-1 Cell Binding High-Content Screening Assay (CBA). Particulars: Jurkat-hPD-1 cells, PE-labeled PD-L1-Ig 20 nM final; read-out: Jurkat HPD1 PDL1 IC50. Summed up: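 Cells 8×10^3/well, DMEM + 10% FCS; cpd 2 h, 37 °C; PE–PD-L1-Ig 20 nM final, 1 h; PFA fix + Hoechst 33342, 3× dPBS wash; high-content imager.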
As usually defined, the IC50 is the concentration needed to halve the response being measured. Take `Cc1cccc(C[C@@H]2NC(=O)[C@H](CC(=O)O)NC(=O)[C@H](Cc3ccc(OCC(=O)O)cc3)NC(=O)[C@H](CCCNC(=N)N)NC(=O)CSC[C@@H](C(=O)N[C@@H](CCCCN)C(=O)NCCCCCCCCCCC(=O)O)NC(=O)[C@H]([C@@H](C)O)NC(=O)[C@H](C(C)C)NC(=O)[C@H](CC3CCCCC3)NC(=O)[C@H](CCN)NC(=O)[C@@H](CC(C)C)NC(=O)[C@H](C)N(C)C(=O)[C@H](Cc3ccc(OCC(=O)O)cc3)NC(=O)[C@H](Cc3ccc(-c4ccccc4)cc3)NC(=O)[C@H](Cc3ccc(C(=O)O)cc3)NC2=O)c1` [Example 1225] ({CH2CO}-RY(Carboxymethyl)D[Phe(3-Me)][Phe(4-COOH)][Bip]Y(Carboxymethyl)[NMeA][dL][Dab][Cha]VTCK[Aun]-OH; thioether N-14): the IC50 was found to be 48.7 nM.
Regarding `Cc1cccc(C[C@@H]2NC(=O)[C@H](CC(=O)O)NC(=O)[C@H](Cc3ccc(OCC(=O)O)cc3)NC(=O)[C@H](CCCCN)NC(=O)CSC[C@@H](C(=O)N[C@@H](CCCCN)C(=O)NCCCCCCCCCCC(=O)O)NC(=O)[C@H]([C@@H](C)O)NC(=O)[C@H](C(C)C)NC(=O)[C@H](CC3CCCCC3)NC(=O)[C@H](CCN)NC(=O)[C@@H](CC(C)C)NC(=O)[C@H](C)N(C)C(=O)[C@H](Cc3ccc(OCC(=O)O)cc3)NC(=O)[C@H](Cc3ccc(-c4ccccc4)cc3)NC(=O)[C@H](Cc3ccc(C(=O)O)cc3)NC2=O)c1` [Example 1226] ({CH2CO}-KY(Carboxymethyl)D[Phe(3-Me)][Phe(4-COOH)][Bip]Y(Carboxymethyl)[NMeA][dL][Dab][Cha]VTCK[Aun]-OH; thioether N-14), the IC50 was 80.6 nM.
`Cc1cccc(C[C@@H]2NC(=O)[C@H](CC(=O)O)NC(=O)[C@H](Cc3ccc(OCC(=O)O)cc3)NC(=O)[C@H](CCCNC(=N)N)NC(=O)CSC[C@@H](C(=O)N[C@@H](CCCCN)C(=O)NCCCCCCCCCCC(=O)O)NC(=O)[C@H]([C@@H](C)O)NC(=O)[C@H](C(C)C)NC(=O)[C@H](CC3CCCCC3)NC(=O)[C@H](CCN)NC(=O)[C@@H](CC(C)C)NC(=O)[C@H](C)N(C)C(=O)[C@H](Cc3ccc(OCC(=O)O)cc3)NC(=O)[C@H](Cc3ccc(-c4ccccc4)cc3)NC(=O)[C@H](CCCNC(N)=O)NC2=O)c1` [Example 1227] ({CH2CO}-RY(Carboxymethyl)D[Phe(3-Me)][Cit][Bip]Y(Carboxymethyl)[NMeA][dL][Dab][Cha]VTCK[Aun]-OH; thioether N-14): the IC50 was 33.9 nM.
`CC(C)C[C@H]1NC(=O)[C@H](C)N(C)C(=O)[C@H](Cc2ccc(OCC(=O)O)cc2)NC(=O)[C@H](Cc2ccc(-c3ccccc3)cc2)NC(=O)[C@H](Cc2ccc(OCC(=O)O)cc2)NC(=O)[C@H](Cc2cccc(C(F)(F)F)c2)NC(=O)[C@H](CC(=O)O)NC(=O)[C@H](Cc2ccc(OCC(=O)O)cc2)NC(=O)[C@H]([C@@H](C)O)NC(=O)CSC[C@@H](C(=O)N[C@@H](CCN)C(=O)NCCOCCOCC(=O)NCCCCCCCCCCC(=O)O)NC(=O)[C@H](CCC(=O)O)NC(=O)[C@H](C(C)C)NC(=O)[C@H](CC2CCCCC2)NC(=O)[C@H](CCN)NC1=O` [Example 1228] ({CH2CO}-TY(Carboxymethyl)D[Phe(3-CF3)]Y(Carboxymethyl)[Bip]Y(Carboxymethyl)[NMeA][dL][Dab][Cha]VEC[Dab][AEEA][Aun]-OH; thioether N-14): the IC50 stood at 16.9 nM.
For the compound `CC(C)C[C@H]1NC(=O)[C@H](C)N(C)C(=O)[C@H](Cc2ccc(OCC(=O)O)cc2)NC(=O)[C@H](Cc2ccc(-c3ccccc3)cc2)NC(=O)[C@H](Cc2ccc(OCC(=O)O)cc2)NC(=O)[C@H](Cc2cccc(Cl)c2)NC(=O)[C@H](CC(=O)O)NC(=O)[C@H](Cc2ccc(OCC(=O)O)cc2)NC(=O)[C@H]([C@@H](C)O)NC(=O)CSC[C@@H](C(=O)N[C@@H](CCN)C(=O)NCCOCCOCC(=O)NCCCCCCCCCCC(=O)O)NC(=O)[C@H](CCC(=O)O)NC(=O)[C@H](C(C)C)NC(=O)[C@H](CC2CCCCC2)NC(=O)[C@H](CCN)NC1=O` [Example 1229] ({CH2CO}-TY(Carboxymethyl)D[Phe(3-Cl)]Y(Carboxymethyl)[Bip]Y(Carboxymethyl)[NMeA][dL][Dab][Cha]VEC[Dab][AEEA][Aun]-OH; thioether N-14), the IC50 came out at 15.2 nM.
`CC(C)C[C@H]1NC(=O)[C@H](C)N(C)C(=O)[C@H](Cc2ccc(OCC(=O)O)cc2)NC(=O)[C@H](Cc2ccc(-c3ccccc3)cc2)NC(=O)[C@H](Cc2ccc(OCC(=O)O)cc2)NC(=O)[C@H](Cc2cccc(C#N)c2)NC(=O)[C@H](CC(=O)O)NC(=O)[C@H](Cc2ccc(OCC(=O)O)cc2)NC(=O)[C@H]([C@@H](C)O)NC(=O)CSC[C@@H](C(=O)N[C@@H](CCN)C(=O)NCCOCCOCC(=O)NCCCCCCCCCCC(=O)O)NC(=O)[C@H](CCC(=O)O)NC(=O)[C@H](C(C)C)NC(=O)[C@H](CC2CCCCC2)NC(=O)[C@H](CCN)NC1=O` [Example 1230] ({CH2CO}-TY(Carboxymethyl)D[Phe(3-CN)]Y(Carboxymethyl)[Bip]Y(Carboxymethyl)[NMeA][dL][Dab][Cha]VEC[Dab][AEEA][Aun]-OH; thioether N-14): the IC50 is 128 nM.
With `CC(C)C[C@H]1NC(=O)[C@H](C)N(C)C(=O)[C@H](Cc2ccc(OCC(=O)O)cc2)NC(=O)[C@H](Cc2ccc(-c3ccccc3)cc2)NC(=O)[C@H](Cc2ccc(C(=O)O)cc2)NC(=O)[C@H](Cc2cccc(C(F)(F)F)c2)NC(=O)[C@H](CC(=O)O)NC(=O)[C@H](Cc2ccc(OCC(=O)O)cc2)NC(=O)[C@H]([C@@H](C)O)NC(=O)CSC[C@@H](C(=O)N[C@@H](CCN)C(=O)NCCCCCCCCCCC(=O)O)NC(=O)[C@H]([C@@H](C)O)NC(=O)[C@H](C(C)C)NC(=O)[C@H](CC2CCCCC2)NC(=O)[C@H](CCN)NC1=O` [Example 1231] ({CH2CO}-TY(Carboxymethyl)D[Phe(3-CF3)][Phe(4-COOH)][Bip]Y(Carboxymethyl)[NMeA][dL][Dab][Cha]VTC[Dab][Aun]-OH; thioether N-14), the IC50 was found to be 30.2 nM.
For the compound `CC(C)C[C@H]1NC(=O)[C@H](C)N(C)C(=O)[C@H](Cc2ccc(OCC(=O)O)cc2)NC(=O)[C@H](Cc2ccc(-c3ccccc3)cc2)NC(=O)[C@H](Cc2ccc(C(=O)O)cc2)NC(=O)[C@H](Cc2cccc(Cl)c2)NC(=O)[C@H](CC(=O)O)NC(=O)[C@H](Cc2ccc(OCC(=O)O)cc2)NC(=O)[C@H]([C@@H](C)O)NC(=O)CSC[C@@H](C(=O)N[C@@H](CCN)C(=O)NCCCCCCCCCCC(=O)O)NC(=O)[C@H]([C@@H](C)O)NC(=O)[C@H](C(C)C)NC(=O)[C@H](CC2CCCCC2)NC(=O)[C@H](CCN)NC1=O` [Example 1232] ({CH2CO}-TY(Carboxymethyl)D[Phe(3-Cl)][Phe(4-COOH)][Bip]Y(Carboxymethyl)[NMeA][dL][Dab][Cha]VTC[Dab][Aun]-OH; thioether N-14), the IC50 was found to be 34.1 nM.
With `CC(C)C[C@H]1NC(=O)[C@H](C)N(C)C(=O)[C@H](Cc2ccc(OCC(=O)O)cc2)NC(=O)[C@H](Cc2ccc(-c3ccccc3)cc2)NC(=O)[C@H](Cc2ccc(C(=O)O)cc2)NC(=O)[C@H](Cc2cccc(C#N)c2)NC(=O)[C@H](CC(=O)O)NC(=O)[C@H](Cc2ccc(OCC(=O)O)cc2)NC(=O)[C@H]([C@@H](C)O)NC(=O)CSC[C@@H](C(=O)N[C@@H](CCN)C(=O)NCCCCCCCCCCC(=O)O)NC(=O)[C@H]([C@@H](C)O)NC(=O)[C@H](C(C)C)NC(=O)[C@H](CC2CCCCC2)NC(=O)[C@H](CCN)NC1=O` [Example 1233] ({CH2CO}-TY(Carboxymethyl)D[Phe(3-CN)][Phe(4-COOH)][Bip]Y(Carboxymethyl)[NMeA][dL][Dab][Cha]VTC[Dab][Aun]-OH; thioether N-14), the IC50 is 66.7 nM.
For the compound `Cc1cccc(C[C@@H]2NC(=O)[C@H](CC(=O)O)NC(=O)[C@H](Cc3ccc(OCC(=O)O)cc3)NC(=O)[C@H]([C@@H](C)O)NC(=O)CSC[C@@H](C(=O)N[C@@H](CCN)C(=O)NCCCCCCCCCCC(=O)O)NC(=O)[C@H]([C@@H](C)O)NC(=O)[C@H](C(C)C)NC(=O)[C@H](CC3CCCCC3)NC(=O)[C@H](CCN)NC(=O)[C@@H](CC(C)C)NC(=O)[C@H](C)N(C)C(=O)[C@H](Cc3ccc(OCC(=O)O)cc3)NC(=O)[C@H](Cc3ccc(-c4cc(F)cc(F)c4)cc3)NC(=O)[C@H](Cc3ccc(C(=O)O)cc3)NC2=O)c1` [Example 1234] ({CH2CO}-TY(Carboxymethyl)D[Phe(3-Me)][Phe(4-COOH)][X13]Y(Carboxymethyl)[NMeA][dL][Dab][Cha]VTC[Dab][Aun]-OH; thioether N-14), the IC50 was found to be 31.6 nM.
The result for `Cc1cccc(C[C@@H]2NC(=O)[C@H](CC(=O)O)NC(=O)[C@H](Cc3ccc(OCC(=O)O)cc3)NC(=O)[C@H]([C@@H](C)O)NC(=O)CSC[C@@H](C(=O)N[C@@H](CCN)C(=O)NCCCCCCCCCCC(=O)O)NC(=O)[C@H]([C@@H](C)O)NC(=O)[C@H](C(C)C)NC(=O)[C@H](CC3CCCCC3)NC(=O)[C@H](CCN)NC(=O)[C@@H](CC(C)C)NC(=O)[C@H](C)N(C)C(=O)[C@H](Cc3ccc(OCC(=O)O)cc3)NC(=O)[C@H](Cc3ccc(-c4ccc(F)cc4)cc3)NC(=O)[C@H](Cc3ccc(C(=O)O)cc3)NC2=O)c1` [Example 1235] ({CH2CO}-TY(Carboxymethyl)D[Phe(3-Me)][Phe(4-COOH)][Phe(4-(4-F-Ph))]Y(Carboxymethyl)[NMeA][dL][Dab][Cha]VTC[Dab][Aun]-OH; thioether N-14) reads 9.5 nM.
In the case of `Cc1cccc(C[C@@H]2NC(=O)[C@H](CC(=O)O)NC(=O)[C@H](Cc3ccc(OCC(=O)O)cc3)NC(=O)[C@H]([C@@H](C)O)NC(=O)CSC[C@@H](C(=O)N[C@@H](CCN)C(=O)NCCCCCCCCCCC(=O)O)NC(=O)[C@H]([C@@H](C)O)NC(=O)[C@H](C(C)C)NC(=O)[C@H](CC3CCCCC3)NC(=O)[C@H](CCN)NC(=O)[C@@H](CC(C)C)NC(=O)[C@H](C)N(C)C(=O)[C@H](Cc3ccc(OCC(=O)O)cc3)NC(=O)[C@H](Cc3ccc(-c4cc(F)c(F)c(F)c4)cc3)NC(=O)[C@H](Cc3ccc(C(=O)O)cc3)NC2=O)c1` [Example 1236] ({CH2CO}-TY(Carboxymethyl)D[Phe(3-Me)][Phe(4-COOH)][X5]Y(Carboxymethyl)[NMeA][dL][Dab][Cha]VTC[Dab][Aun]-OH; thioether N-14), the IC50 was 54.5 nM.
